Key:
[1] = Clearance in rat at 3 mg/kg, po; type: ADME, organism-based; parameters: dose 3 mg/kg, route oral; conditions: in vivo
Rattus norvegicus [2] = experiment: Volume of distribution at steady state in rat at 3 mg/kg, po; type: ADME, organism-based; parameters: dose 3 mg/kg, route oral; conditions: in vivo
[3] = Terminal half life in rat at 3 mg/kg, iv; type: ADME, organism-based; parameters: dose 3 mg/kg, route intravenous; conditions: in vivo, read-out: beta t1/2 (converted)
[4] = Oral bioavailability in rat at 3 mg/kg; type: ADME, organism-based; conditions: in vivo
[5] = Clearance in dog at 3 mg/kg, po; type: ADME, organism-based, Canis lupus familiaris; parameters: dose 3 mg/kg, route oral; conditions: in vivo
Canis familiaris [6] = experiment: Volume of distribution at steady state in dog at 3 mg/kg, po; type: ADME, organism-based, Canis lupus familiaris; parameters: dose 3 mg/kg, route oral; conditions: in vivo
[7] = Terminal half life in dog at 3 mg/kg, iv; type: ADME, organism-based, Canis lupus familiaris; parameters: dose 3 mg/kg, route intravenous; conditions: in vivo, read-out: beta t1/2 (converted)
[8] = Oral bioavailability in dog at 3 mg/kg; type: ADME, organism-based, Canis lupus familiaris; conditions: in vivo
[9] = Dissociation constant, pKa of the compound; type: physicochemical
[10] = Lipophilicity, log D of the compound; type: physicochemical; conditions: octanol/water
[11] = Clearance in rat at 20 mg/kg, po; type: ADME, organism-based; parameters: dose 20 mg/kg, route oral; conditions: in vivo
Rattus norvegicus [12] = experiment: Volume of distribution at steady state in rat at 20 mg/kg, po; type: ADME, organism-based; parameters: dose 20 mg/kg, route oral; conditions: in vivo
[13] = Terminal half life in rat at 20 mg/kg, iv; type: ADME, organism-based; parameters: dose 20 mg/kg, route intravenous; conditions: in vivo, read-out: beta t1/2 (converted)
[14] = Oral bioavailability in rat at 20 mg/kg; type: ADME, organism-based; conditions: in vivo
[15] = Clearance in dog at 20 mg/kg, po; type: ADME, organism-based, Canis lupus familiaris; parameters: dose 20 mg/kg, route oral; conditions: in vivo
Canis familiaris [16] = experiment: Volume of distribution at steady state in dog at 20 mg/kg, po; type: ADME, organism-based, Canis lupus familiaris; parameters: dose 20 mg/kg, route oral; conditions: in vivo
[17] = Terminal half life in dog at 20 mg/kg, iv; type: ADME, organism-based, Canis lupus familiaris; parameters: dose 20 mg/kg, route intravenous; conditions: in vivo, read-out: beta t1/2 (converted)
[18] = Oral bioavailability in dog at 20 mg/kg; type: ADME, organism-based, Canis lupus familiaris; conditions: in vivo

Row | SMILES | CL/F [1] | Vdss (Rattus norvegicus [2]) | half-life [3] | bioavailability [4] | CL/F [5] | Vdss (Canis familiaris [6]) | half-life [7] | bioavailability [8] | pKa [9] | logD [10] | CL/F [11] | Vdss (Rattus norvegicus [12]) | half-life [13] | bioavailability [14] | CL/F [15] | Vdss (Canis familiaris [16]) | half-life [17] | bioavailability [18]
1 | CCOc1cc2nccc(Oc3cnc(CC(=O)Nc4n[nH]c(CC)c4C)c(OC)c3)c2cc1OC | 0.54 L/h/kg | 0.7 L/kg | 1.6 h | 43% | 0.69 L/h/kg | 2 L/kg | 3.4 h | 100% | 6 | 3.3 |  |  |  |  |  |  |  | 
2 | COc1ccc2c(Oc3ccc(CC(=O)Nc4cn(C)nc4C)c(OC)c3)ccnc2c1.O=S(=O)(O)O |  |  |  |  |  |  |  |  | 6.3 | 3.5 | 0.342 L/h/kg | 0.7 L/kg | 3.7 h | 78% | 0.15 L/h/kg | 1.8 L/kg | 10.6 h | 59%
3 | COc1ccc2c(Oc3ccc(CC(=O)Nc4cn(C)nc4C)c(OC)c3)ccnc2c1 |  |  |  |  |  |  |  |  |  |  |  | 0.7 L/kg | 3.7 h |  | 0.144 L/h/kg | 1.4 L/kg | 8.6 h | 

From ChEMBL document CHEMBL2021798, “Discovery of new quinoline ether inhibitors with high affinity and selectivity for PDGFR tyrosine kinases” (Bioorg Med Chem Lett, 2012)
